Reference: ChEMBL document CHEMBL5352451, “Novel rhodanine based inhibitors of aldose reductase of non-acidic nature with p-hydroxybenzylidene functional group” (Eur J Med Chem, 2023)

Tests used:
[1] = biological target: Aldo-keto reductase family 1 member B1 (Homo sapiens, UniProt P15121); experiment: Inhibition of ALR2 (unknown origin)
[2] = biological target: Aldo-keto reductase family 1 member A1 (Rattus norvegicus, UniProt P51635); experiment: Inhibition of rat kidney ALR1 using D-glucuronate by measuring NADPH consumption by spectrophotometric analysis; assay type: tissue-based
Aldo-keto reductase family 1 member A1, sequence (P51635 whole entry, looked up): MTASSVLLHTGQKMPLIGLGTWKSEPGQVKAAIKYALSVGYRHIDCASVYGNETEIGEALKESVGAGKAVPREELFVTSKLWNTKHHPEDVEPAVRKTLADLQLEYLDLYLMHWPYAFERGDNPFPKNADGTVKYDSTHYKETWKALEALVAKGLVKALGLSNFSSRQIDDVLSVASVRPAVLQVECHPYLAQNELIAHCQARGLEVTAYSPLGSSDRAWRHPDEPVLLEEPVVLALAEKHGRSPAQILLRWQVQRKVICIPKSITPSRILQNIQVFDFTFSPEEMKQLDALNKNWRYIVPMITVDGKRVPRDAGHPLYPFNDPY

Rattus norvegicus = species on record: Rattus norvegicus; experiment: Selectivity index, ratio of IC50 for rat kidney ALR1 to IC50 for rat eye lens ALR2
[3] = Inhibition of rat eye lens ALR2 using DL-glyceraldehyde by measuring NADPH consumption by spectrophotometric analysis; assay type: tissue-based

`O=C(CN1C(=O)S/C(=C\c2ccc(O)cc2)C1=O)NO` showed an IC50 [1] of 1790 nM.

Work on `O=C1/C(=C/c2ccc(O)cc2)SC(=S)N1/N=C/c1ccc(O)cc1` yielded an IC50 [2] of 116 nM, a Ratio IC50 (Rattus norvegicus) of 5 and an IC50 [3] of 22 nM. For the same compound, the pIC50 [3] was 7.66.

`COc1ccc(/C=N/N2C(=O)/C(=C/c3ccc(O)cc3)SC2=S)cc1` showed an IC50 [2] of over 25000 nM, a Ratio IC50 (Rattus norvegicus) of over 11 and an IC50 [3] of 2150 nM. The pIC50 [3] was 5.67.

`O=C1/C(=C/c2ccc(O)cc2)SC(=S)N1/N=C/c1ccc(F)cc1` gave an IC50 [2] of 228 nM, a Ratio IC50 (Rattus norvegicus) of 8 and an IC50 [3] of 27 nM. It also gave a pIC50 [3] of 7.57.

`O=C(CN1C(=O)S/C(=C\c2ccc(O)cc2)C1=O)Nc1ccccc1O` gave an IC50 [1] of 950 nM.

In the case of `O=C1/C(=C/c2ccc(O)cc2)SC(=S)N1/N=C/c1ccccc1Cl`, the IC50 [2] is reported as 1760 nM, the Ratio IC50 (Rattus norvegicus) is reported as 12 and the IC50 [3] is reported as 149 nM. For the same compound, the pIC50 [3] was 6.83.

In the case of `O=C1/C(=C/c2ccc(O)cc2)SC(=S)N1/N=C/c1ccccc1`, the IC50 [2] is reported as 21100 nM, the Ratio IC50 (Rattus norvegicus) is reported as 24 and the IC50 [3] is reported as 892 nM. The pIC50 [3] was 6.05.

Compound `CC(/C=C1\SC(=S)N(CC(=O)O)C1=O)=C\c1ccccc1` [EPALRESTAT] has an IC50 [3] of 250 nM and a pIC50 [3] of 6.6.

For `O=C1S/C(=C\c2ccc(O)cc2)C(=O)N1CC(=O)C(F)(F)F`, the IC50 [1] was 3000 nM.

With `COc1ccc2nc(/N=C3\NC(=O)/C(=C/c4ccc(O)cc4)S3)sc2c1` the IC50 [1] was 1300 nM.

Work on `COC(=O)CN1C(=O)S/C(=C\c2ccc(O)cc2)C1=O` yielded an IC50 [1] of 6180 nM.

`Cc1ccccc1/C=N/N1C(=O)/C(=C/c2ccc(O)cc2)SC1=S` showed an IC50 [2] of 635 nM, a Ratio IC50 (Rattus norvegicus) of 12 and an IC50 [3] of 53 nM. For the same compound, the pIC50 [3] was 7.28.
